Biological target: T1, KRAS G12C (SEQ ID NO:1 or SEQ ID NO:2) (Homo sapiens, UniProt P01116, G12C)
T1 construct: purchased
Experiment: Intact mass analysis (LC-MS) of covalent modification, KRAS G12C
Type: binding
Set-up: key to KRAS G12C Modification: b: KRAS G12C modified
Conditions: intact mass spectrometry; covalent modification of KRAS G12C FL
Method: The covalent modification of the proteins with the compounds were evaluated using intact mass analysis by liquid chromatography-mass spectrometry instrument (LC-MS/MS).
The reaction solution (20 μL) was prepared in 96-well plate and contained the protein (2 μM), the compound (100 μM), HEPES buffer (20 mM, pH 8), 2% DMSO, 2% glycerol, and 150 mM NaCl. The reaction was allowed to proceed for 24 h at 25° C. The reaction solution (1 μL) was injected into the LC/MS/MS without any further sample preparation.
The LC-MS/MS instrument comprises of a Waters G2-XS quadrupole-time of flight (QTof) mass spectrometer and a Waters Acuity I-class Ultra-High Performance Liquid Chromatography (UPLC) system. The I-class UPLC system includes a binary solvent manager (BSM), and an Acquity sample manager (SM). The mobile phase consisted of: A) 0.1% (v/v) formic acid in MilliQ water; B) 0.1% (v/v) formic acid acetonitrile. Gradients were run over 5 min and proceeded as follows: A:B, 85:15, 0.0-0.7 min, 85:15→15:85, 0.7-1.5 min, 10:90, 1.5-4 min, 10:90→85:15, 4-4.5 min, 85:15, 4.5-5 min. The analytical column was a Waters BEH C4 column 1.7 μm (50×1 mm) column with pore sizes of 300 Å. The TOF MS data was collected in positive ion mode (m/z of 400-2000 Da) using MassLynx software (Waters).
The spectral deconvolution was performed using UNIFI software (Waters). The added mass of the protein upon covalent modification to cysteine residues were specified. Multiple modification of up to 8 cysteine was allowed. All the adducts with signal intensities of <2% of the base peak were ignored. The % modification was calculated as the adduct signal intensity over the total intensities of the protein peaks and the adducts.

T1 sequence (P01116 with tags, fused parts or gaps isoform P01116-2 G12C): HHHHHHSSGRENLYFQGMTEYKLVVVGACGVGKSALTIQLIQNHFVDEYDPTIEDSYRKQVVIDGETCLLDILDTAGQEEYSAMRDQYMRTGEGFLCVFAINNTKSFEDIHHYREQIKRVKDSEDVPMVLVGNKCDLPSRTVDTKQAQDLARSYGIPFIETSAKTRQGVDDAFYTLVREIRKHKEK

SMILES | KRAS G12C Modification
O=C(COc1ccc(Cl)cc1Cl)NC1CN(S(=O)(=O)c2c(F)c(F)c(F)c(F)c2F)C1 [Compound 50A, 2-(2,4-dichlorophenoxy)-N-(1-((perfluorophenyl)sulfonyl)azetidin-3-yl)acetamide] | b
O=C(COc1ccc(Cl)cc1Cl)N1CCN(S(=O)(=O)c2c(F)c(F)c(F)c(F)c2C(F)(F)F)CC1 [Compound 51A, 2-(2,4-dichlorophenoxy)-1-(4-((2,3,4,5-tetrafluoro-6-(trifluoromethyl)phenyl)sulfonyl)piperazin-1-yl)ethan-1-one] | b

— US20240092756A1, “METHODS AND COMPOSITION FOR KRAS MODIFICATIONS” (2692372 ONTARIO, INC., priority 2020, published 2024)
